Legend:
Assay in all cases: relative viability (nuclei count vs DMSO), 5 days (fraction); higher = more cells survive
Venetoclax + Phenformin = compound: CC1(C)CCC(CN2CCN(c3ccc(C(=O)NS(=O)(=O)c4ccc(NCC5CCOCC5)c([N+](=O)[O-])c4)c(Oc4cnc5[nH]ccc5c4)c3)CC2)=C(c2ccc(Cl)cc2)C1 [Venetoclax] + N=C(N)NC(=N)NCCc1ccccc1 [Phenformin] (partner 250 µM)
In short: (§1)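 Relative viability divides the nuclei count in treated wells by that in vehicle wells. Lung cancer cell lines were seeded in 1536-well plates, dosed by pin tool the next day, and fixed and stained after 5 days in one step with final 0.05% Triton X-100, 1% formaldehyde and 1 ug/ml Hoechst. Dosing was a single drug or a fixed anchor-drug dose plus five library-drug doses (not always all listed) in √10 steps, and values are medians of duplicate plates imaged at 4×.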

Selumetinib + Trametinib = compound: Cn1cnc2c(F)c(Nc3ccc(Br)cc3Cl)c(C(=O)NOCCO)cc21 [Selumetinib] + CC(=O)Nc1cccc(-n2c(=O)n(C3CC3)c(=O)c3c(Nc4ccc(I)cc4F)n(C)c(=O)c(C)c32)c1 [Trametinib] (partner 0.02 µM)
In short: as §1

Selumetinib + Pictilisib = compound: Cn1cnc2c(F)c(Nc3ccc(Br)cc3Cl)c(C(=O)NOCCO)cc21 [Selumetinib] + CS(=O)(=O)N1CCN(Cc2cc3nc(-c4cccc5[nH]ncc45)nc(N4CCOCC4)c3s2)CC1 [Pictilisib] (partner 1 µM)
In short: as §1

Selumetinib + Vorinostat = compound: Cn1cnc2c(F)c(Nc3ccc(Br)cc3Cl)c(C(=O)NOCCO)cc21 [Selumetinib] + O=C(CCCCCCC(=O)Nc1ccccc1)NO [Vorinostat] (partner 1 µM)
In short: as §1

| Cell Line | relative viability (Venetoclax + Phenformin; first compound 0.01 µM) | relative viability (Venetoclax + Phenformin; first compound 0.03162 µM) | relative viability (Venetoclax + Phenformin; first compound 0.1 µM) | relative viability (Venetoclax + Phenformin; first compound 0.3162 µM) | relative viability (Venetoclax + Phenformin; first compound 1 µM) | relative viability (Selumetinib + Trametinib; first compound 0.02 µM) | relative viability (Selumetinib + Trametinib; first compound 0.06325 µM) | relative viability (Selumetinib + Trametinib; first compound 0.2 µM) | relative viability (Selumetinib + Trametinib; first compound 0.6325 µM) | relative viability (Selumetinib + Pictilisib; first compound 0.02 µM) | relative viability (Selumetinib + Pictilisib; first compound 0.06325 µM) | relative viability (Selumetinib + Pictilisib; first compound 0.2 µM) | relative viability (Selumetinib + Pictilisib; first compound 0.6325 µM) | relative viability (Selumetinib + Vorinostat; first compound 0.02 µM) | relative viability (Selumetinib + Vorinostat; first compound 0.06325 µM) | relative viability (Selumetinib + Vorinostat; first compound 0.2 µM) | relative viability (Selumetinib + Vorinostat; first compound 0.6325 µM) |
| --- | --- | --- | --- | --- | --- | --- | --- | --- | --- | --- | --- | --- | --- | --- | --- | --- | --- |
| NCI-H1650 | 0.515 | 0.479 | 0.541 | 0.534 | 0.377 | 0.522 | 0.458 | 0.531 | 0.577 | 0.53 | 0.44 | 0.524 | 0.525 | 0.569 | 0.526 | 0.408 | 0.587 |
| HARA | 0.415 | 0.406 | 0.464 | 0.467 | 0.447 | 0.531 | 0.596 | 0.787 | 0.448 | 0.285 | 0.391 | 0.31 | 0.15 | 0.428 |  | 0.365 | 0.249 |
| Calu-6 |  |  |  |  |  |  |  |  |  | 0.931 | 0.644 | 0.467 | 0.335 |  |  |  |  |
| NCI-H1975 | 0.429 | 0.397 | 0.401 | 0.41 | 0.366 | 0.332 | 0.34 | 0.37 | 0.31 | 0.259 | 0.242 | 0.211 | 0.204 | 0.726 | 0.605 | 0.582 | 0.473 |
| SK-MES-1 | 0.616 | 0.685 | 0.69 | 0.601 | 0.511 | 0.561 | 0.579 | 0.476 | 0.461 | 0.324 | 0.266 | 0.196 | 0.233 | 0.938 | 0.85 | 0.853 | 0.65 |
| NCI-H1666 | 0.546 | 0.605 | 0.531 | 0.582 | 0.56 | 0.867 | 0.854 | 0.807 | 0.845 | 0.346 | 0.22 | 0.264 | 0.239 | 1.02 | 0.902 | 1.06 | 0.86 |
| NCI-H2228 | 0.366 | 0.322 | 0.234 | 0.422 | 0.408 | 0.513 | 0.328 | 0.554 | 0.393 | 0.247 | 0.283 | 0.354 | 0.314 | 0.744 | 0.627 | 0.63 | 0.619 |
| HCC-44 | 0.362 | 0.153 | 0.165 | 0.161 | 0.182 | 1.03 | 0.993 | 0.999 | 1.14 | 0.562 | 0.525 | 0.379 | 0.337 | 1.1 | 1.05 | 1.06 | 1.07 |
| PC-14 | 0.562 | 0.747 | 0.717 | 0.709 | 0.499 | 0.847 | 0.74 | 0.732 | 0.604 | 0.723 | 0.551 | 0.548 | 0.519 | 0.835 | 0.667 | 0.688 | 0.504 |
| NCI-H1299 |  |  |  |  |  |  |  |  |  | 0.673 | 0.51 | 0.389 | 0.359 |  |  |  |  |
| NCI-H661 | 0.298 | 0.278 | 0.291 | 0.28 | 0.262 | 0.585 | 0.575 | 0.567 | 0.537 | 0.496 | 0.39 | 0.347 | 0.577 | 0.882 | 0.772 | 0.75 | 0.799 |
| HCC-827 | 0.473 | 0.497 | 0.344 | 0.406 | 0.394 | 0.528 | 0.554 | 0.541 | 0.549 | 0.82 | 1.23 | 0.79 | 0.904 | 1 | 0.906 | 0.999 | 0.957 |
| EBC-1 |  |  |  |  |  |  |  |  |  | 0.259 | 0.172 | 0.182 | 0.173 |  |  |  |  |
| NCI-H1623 | 0.556 | 0.607 | 0.597 | 0.64 | 0.63 |  |  |  |  |  |  |  |  |  |  |  |  |
| NCI-H2342 | 0.763 | 0.531 | 0.601 | 0.568 | 0.563 | 0.838 | 0.835 | 0.789 | 0.975 |  |  |  |  | 0.784 | 0.746 | 0.737 | 0.812 |
| SW 900 | 0.385 | 0.702 | 0.528 | 0.706 | 0.623 | 0.68 | 0.764 | 0.875 | 0.675 |  |  |  |  | 0.423 | 0.399 | 0.409 | 0.588 |
| IA-LM |  |  |  |  |  |  |  |  |  | 0.144 | 0.143 | 0.119 | 0.0815 | 0.728 | 0.648 | 0.366 | 0.198 |
| NCI-H522 | 0.647 | 0.735 | 0.561 | 0.613 | 0.637 | 0.859 | 0.727 | 0.757 | 0.888 |  |  |  |  | 0.855 | 0.846 | 0.851 | 0.921 |
| A549 | 0.141 | 0.147 | 0.129 | 0.164 | 0.129 |  |  |  |  | 0.441 | 0.377 | 0.256 | 0.238 |  |  |  |  |
| NCI-H1648 |  |  |  |  |  |  | 0.503 | 0.443 | 0.499 |  |  |  |  |  | 0.596 | 0.423 | 0.367 |
| ABC-1 | 0.234 | 0.269 | 0.236 | 0.241 | 0.228 |  |  |  |  | 0.64 | 0.605 | 0.393 | 0.607 | 1.29 | 0.922 | 0.982 | 1.04 |

From the supplement of paper PMC10307832
